Reference: patent US12637471B2, “Heterocyclic compounds, compositions, methods of preparation and uses thereof” (Organon R&D Finland Ltd, priority 2021, dated 2026)

Tests used:
Type in all cases: biochemical
[1] = target: T1, 17β-Hydroxysteroid Dehydrogenase Type 2 Enzyme (17β-HSD2) (Homo sapiens, UniProt P37059); experiment: Inhibition of the 17β-hydroxysteroid dehydrogenase type 2 enzyme, 3H-testosterone conversion; conditions: inhibitor at 10 μM
T1 construct: made in house; host or cells: Sf-9 insect cells (baculovirus)
T1 sequence (P37059 1-387): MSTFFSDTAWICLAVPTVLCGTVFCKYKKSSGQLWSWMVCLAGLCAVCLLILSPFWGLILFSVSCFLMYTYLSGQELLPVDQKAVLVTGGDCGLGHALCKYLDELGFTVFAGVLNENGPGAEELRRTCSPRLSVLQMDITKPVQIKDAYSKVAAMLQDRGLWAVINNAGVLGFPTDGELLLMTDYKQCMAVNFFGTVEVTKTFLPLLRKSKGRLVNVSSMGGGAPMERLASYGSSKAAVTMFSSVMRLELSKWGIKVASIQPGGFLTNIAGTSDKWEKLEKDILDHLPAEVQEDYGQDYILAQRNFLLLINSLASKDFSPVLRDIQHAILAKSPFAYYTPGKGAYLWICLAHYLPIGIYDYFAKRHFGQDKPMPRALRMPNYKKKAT
Method: Inhibition of the 17β-Hydroxysteroid Dehydrogenase Type 2 Enzyme
Recombinant human 173-HSD2 protein (GenBank Accession No. NM_002153.3) produced in Sf-9 insect cells with baculovirus was used for screening.
Recombinant protein (105 nM/4.5 μg/ml) was incubated in 20 mM KH2PO4 pH 8.5, 1 mM EDTA, complete protease inhibitor cocktail, 1 mM NAD with 56.25 nM testosterone (including ^3H-labelled testosterone) for 30 min at RT, in the presence of the potential inhibitor at 10 μM concentration. Inhibitor stock solutions were prepared in DMSO. Final concentration of DMSO was adjusted to 1% in all samples. The enzyme reaction was stopped by addition of 10% trichloroacetic acid (final concentration 1%). Samples were filtrated through […] filtration plate. Analyses of samples was done with Waters Acquity UPLC H-class equipped with XBridge C18 column and XBridge VanGuard C18 guard column. Acetonitrile: 0.1% formic acid in water (42/58 v/v) with flow of 1.2 ml/min was used for mobile phase. The eluent was mixed with scintillant and the radioactivity was monitored in the eluate by a Scintillation Analyser. The conversion percentage of tritiated substrate (testosterone) to product tritiated (androstenedione) for each sample was determined by the relative percentages of substrate and product in the chromatogram. The inhibition percentages of samples were calculated using following formula: […]

[2] = target: T2, Recombinant human aldo-keto reductase family 1 member C2 (AKR1C2) protein (Homo sapiens, UniProt P52895); experiment: Inhibition of the aldo-keto reductase family 1 member C2, 3H-dihydrotestosterone conversion; conditions: inhibitor at 10 μM
T2 construct: made in house; host or cells: Sf-9 insect cells (baculovirus)
T2 sequence (P52895 1-323): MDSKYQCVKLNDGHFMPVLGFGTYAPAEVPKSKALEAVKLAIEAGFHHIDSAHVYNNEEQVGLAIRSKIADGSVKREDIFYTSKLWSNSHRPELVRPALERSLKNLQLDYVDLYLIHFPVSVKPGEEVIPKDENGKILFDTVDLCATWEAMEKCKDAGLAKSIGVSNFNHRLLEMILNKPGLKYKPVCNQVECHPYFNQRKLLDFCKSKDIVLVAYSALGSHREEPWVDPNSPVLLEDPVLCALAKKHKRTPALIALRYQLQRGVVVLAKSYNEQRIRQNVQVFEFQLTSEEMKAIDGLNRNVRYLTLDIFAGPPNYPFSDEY
Method: Inhibition of the Aldo-Keto Reductase Family 1 Member C2
Recombinant human aldo-keto reductase family 1 member C2 (AKR1C2) protein (GenBank Accession No. NM_001354.6) produced in Sf-9 insect cells with baculovirus was used for screening. Recombinant protein (13.6 nM/0.5 μg/ml) was incubated in 20 mM KH2PO4 pH 7.4, 1 mM EDTA, complete protease inhibitor tablet, 1 mM NADPH with 6.25 nM ^3H-labelled dihydrotestosterone for 45 min at +37° C., in the presence of the potential inhibitor at 10 μM concentration. Inhibitor stock solutions were prepared in DMSO. Final concentration of DMSO was adjusted to 1% in all samples. The enzyme reaction was stopped by addition of 10% trichloroacetic acid (final concentration 1%). Samples were filtrated through […] filtration plate (Merck). Analyses of samples was done with Waters Acquity UPLC H-class equipped with XBridge C18 column and XBridge VanGuard C18 guard column. Acetonitrile: 0.1% formic acid in water (42/58 v/v) with flow of 1.2 ml/min was used for mobile phase. The eluent was mixed with scintillant and the radioactivity was monitored in the eluate by a Scintillation Analyser. The conversion percentage of triated substrate (dihydrotestosterone) to tritiated product (5α-androstane-3α,17β-diol) for each sample was determined by the relative percentages of substrate and product in the chromatogram. The inhibition percentages of samples were calculated using following formula: […]

[3] = target: T3, Recombinant human AKR1C3 (17β-HSD5) protein (Homo sapiens, UniProt P42330); experiment: Inhibition of AKR1C3 (17β-hydroxysteroid dehydrogenase type 5) enzyme, fluorescence assay; conditions: inhibitor at 500 nM
T3 construct: made in house; host or cells: E. coli
T3 sequence (P42330 1-323): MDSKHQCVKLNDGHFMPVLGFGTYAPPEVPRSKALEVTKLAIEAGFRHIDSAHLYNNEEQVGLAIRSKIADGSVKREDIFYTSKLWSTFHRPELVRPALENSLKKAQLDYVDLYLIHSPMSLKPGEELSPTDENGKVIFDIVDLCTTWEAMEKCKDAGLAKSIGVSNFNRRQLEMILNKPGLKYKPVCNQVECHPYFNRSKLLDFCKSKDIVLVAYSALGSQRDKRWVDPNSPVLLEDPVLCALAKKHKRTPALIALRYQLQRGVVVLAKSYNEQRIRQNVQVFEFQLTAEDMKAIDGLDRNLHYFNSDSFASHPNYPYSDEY
Method: Inhibition of AKR1C3 (17β-Hydroxysteroid Dehydrogenase Type 5) Enzyme
Recombinant human AKR1C3 (17β-HSD5) protein (GenBank Accession No. NM_003739.6) produced in E. coli was used for screening. Recombinant protein (27 nM/1 μg/ml) was incubated in 20 mM KH2PO4, 1 mM EDTA, complete protease inhibitor cocktail, pH 7.4 with 1 μM 9-acetyl-2,3,6,7-tetrahydro-1H,5H,11H-pyrano[2,3-f]pyrido[3,2,1-ij]quinolin-11-one and 1 mM NADPH for 60 to 120 min at RT, in the presence of the potential inhibitor at 500 nM concentration. Inhibitor stock solutions were prepared in DMSO. Final concentration of DMSO was adjusted to 1% in all samples. The samples were analysed by fluorescent measurement with Tecan Spark microplate reader at wavelengths 420 nm for excitation and 510 nm for emission. Samples were evaluated against standards of 9-(1-hydroxyethyl)-2,3,6,7-tetrahydro-1H,5H,11H-pyrano[2,3-f]pyrido[3,2,1-ij]quinolin-11-one at concentrations 1 μM-10 nM. Background fluorescence was reduced from all the samples and standards. The concentrations of formed product were calculated from the standard curve with Tecan Spark Magellan software. The formed product concentrations were used to calculate conversion percentages. The inhibition percentages for the samples were calculated from the conversion percentages.
Inhibition percentages of samples were calculated using following formula: […]

| inhibition at 10 µM [1] [%] | inhibition at 10 µM [2] [%] | inhibition at 0.5 µM [3] [%] | SMILES |
| --- | --- | --- | --- |
| 11 | 8 | 96 | N#CC(=C1CCN(C(=O)N2CCc3[nH]cnc3C2)CC1)c1ccc(F)cc1 [Compound 24, 2-(4-fluorophenyl)-2-(1-(4,5,6,7-tetrahydro-1H-imidazo[4,5-c]pyridine-5-carbonyl)piperidin-4-ylidene)acetonitrile] |
| 20 | 9 | 95 | CC(O)C1CCN(C(=O)N2CCC(=C(C#N)c3ccc(F)cc3)CC2)CC1 (stereo not drawn) [Compound 21, 2-(4-fluorophenyl)-2-(1-(4-(1-hydroxyethyl)piperidine-1-carbonyl)piperidin-4-ylidene)acetonitrile] |
| 27 | 8 | 97 | N#CC(=C1CCN(C(=O)N2CCn3cccc3C2)CC1)c1ccc(F)cc1 [Compound 28, 2-(4-fluorophenyl)-2-(1-(1,2,3,4-tetrahydropyrrolo[1,2-a]pyrazine-2-carbonyl)piperidin-4-ylidene)acetonitrile] |
| 6 | 21 | 100 | N#CC(=C1CCN(C(=O)N2CCn3nncc3C2)CC1)c1ccc(C(F)(F)F)cc1 [Compound 150, 2-(1-(4,5,6,7-tetrahydro-[1,2,3]triazolo[1,5-a]pyrazine-5-carbonyl)piperidin-4-ylidene)-2-(4-(trifluoromethyl)phenyl)acetonitrile] |
| 1 | 14 | 100 | N#CC(=C1CCN(C(=O)N2CCc3nocc3C2)CC1)c1ccc(OC(F)(F)F)cc1 [Compound 159, 2-(1-(4,5,6,7-tetrahydroisoxazolo[4,3-c]pyridine-5-carbonyl)piperidin-4-ylidene)-2-(4-(trifluoromethoxy)phenyl)acetonitrile] |
| 12 | 18 | 103 | N#CC(=C1CCN(C(=O)N2CCn3cncc3C2)CC1)c1ccc(F)c(F)c1 [Compound 44, 2-(3,4-difluorophenyl)-2-(1-(5,6,7,8-tetrahydroimidazo[1,5-a]pyrazine-7-carbonyl)piperidin-4-ylidene)acetonitrile] |
| 11 | 8 | 102 | N#CC(=C1CCN(C(=O)N2CCn3cncc3C2)CC1)c1ccc(Cl)cc1 [Compound 46, 2-(4-chlorophenyl)-2-(1-(5,6,7,8-tetrahydroimidazo[1,5-a]pyrazine-7-carbonyl)piperidin-4-ylidene)acetonitrile] |

More lines, now with the values behind:

| SMILES | inhibition at 10 µM [1] [%] | inhibition at 10 µM [2] [%] | inhibition at 0.5 µM [3] [%] |
| --- | --- | --- | --- |
| N#CC(=C1CCN(C(=O)N2CCC(O)CC2)CC1)c1cc(F)cc(F)c1 [Compound 58, 2-(3,5-difluorophenyl)-2-(1-(4-hydroxypiperidine-1-carbonyl)piperidin-4-ylidene)acetonitrile] | 21 | 6 | 93 |
| CCOC1CCN(C(=O)N2CCC(=C(C#N)c3cccc4[nH]ncc34)CC2)CC1 [Compound 92, 2-(1-(4-ethoxypiperidine-1-carbonyl)piperidin-4-ylidene)-2-(1H-indazol-4-yl)acetonitrile] | 30 | 6 | 96 |
| N#CC(=C1CCN(C(=O)N2CCC(S(N)(=O)=O)CC2)CC1)c1cccc(Cl)c1 [Compound 99, 1-(4-((3-chlorophenyl)(cyano)methylene)piperidine-1-carbonyl)piperidine-4-sulfonamide] | 18 | 16 | 96 |
| CCN(CC)C(=O)N1CCC(=C(C#N)c2ccc(Cl)s2)CC1 [Compound 173, 4-((5-chlorothiophen-2-yl)(cyano)methylene)-N,N-diethylpiperidine-1-carboxamide] | 50 | 29 | 99 |
| Cn1ncc2cccc(C(C#N)=C3CCN(C(=O)N4CCC(CO)CC4)CC3)c21 [Compound 118, 2-(1-(4-(hydroxymethyl)piperidine-1-carbonyl)piperidin-4-ylidene)-2-(1-methyl-1H-indazol-7-yl)acetonitrile] | 30 | 14 | 96 |
| CCN(CC)C(=O)N1CCC(=C(C#N)c2ccc(Cl)cc2)CC1 [Compound 105, 4-((4-chlorophenyl)(cyano)methylene)-N,N-diethylpiperidine-1-carboxamide] | 15 | 10 | 100 |
| N#CC(=C1CCN(C(=O)N2CCc3sccc3C2)CC1)c1cccc2[nH]ncc12 [Compound 114, 2-(1H-indazol-4-yl)-2-(1-(4,5,6,7-tetrahydrothieno[3,2-c]pyridine-5-carbonyl)piperidin-4-ylidene)acetonitrile] | 34 | 11 | 97 |
| N#CC(=C1CCN(C(=O)N2CCC(O)CC2)CC1)c1cncc(Cl)c1 [Compound 86, 2-(5-chloropyridin-3-yl)-2-(1-(4-hydroxypiperidine-1-carbonyl)piperidin-4-ylidene)acetonitrile] | 27 | 0 | 80 |
| COCC1CCN(C(=O)N2CCC(=C(C#N)c3cccc(Cl)c3)CC2)CC1 [Compound 153, 2-(3-chlorophenyl)-2-(1-(4-(methoxymethyl)piperidine-1-carbonyl)piperidin-4-ylidene)acetonitrile] | 26 | 14 | 95 |
